Values of other authors as cited in patent US8927021B2, “Granulating process and thus prepared granulate” (Egis Gyogyszergyar Nyilvanosan Muekoedoe Reszventarsasag, priority 2009, dated 2015).

O=C1[C@H](CC[C@H](O)c2ccc(F)cc2)[C@@H](c2ccc(O)cc2)N1c1ccc(F)cc1 [Ezetimibe, (3R,4S)-1-(4-Fluorophenyl)-3-[(3S)-3-(4-fluorophenyl)-3-hydroxypropyl]-4-(4-hydroxyphenyl)-2-azetidinone]
solubility in digestive juice (digestive juice): insoluble | solubility in organic solvents (organic solvents): soluble | solubility in water (water): insoluble
